This assay concerns the target HDM2 (residues 17 to 125) (Homo sapiens (Human), UniProt Q00987). Put plainly: HDM2 FRET assay (inhibition of p53 peptide binding to HDM2). Conditions: read-out: FRET IC50; 0.5 nM HDM2, 3 nM FITC peptide, two hour incubation; values rounded to the nearest integer.

Some results are limits rather than exact numbers.

HDM2 (residues 17 to 125), sequence (Q00987 17-125): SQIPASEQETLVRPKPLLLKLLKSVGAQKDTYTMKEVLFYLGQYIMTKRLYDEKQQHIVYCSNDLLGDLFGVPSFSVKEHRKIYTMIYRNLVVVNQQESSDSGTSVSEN
Excerpt: Methods: An HDM2 FRET assay was developed to assess the compounds' inhibitory activity towards binding of p53 protein. […] Ratio of em520/em495 was used to calculate % inhibition and to obtain IC50 with 4-parameter logistic equation.
Concentration of compound was plotted against em520/Cem495 ratio signal. To generate IC50 values, the dose-response curves were fitted to a standard sigmoidal curve and IC50 values were derived by nonlinear regression analysis.

Take `C[C@H]1CC[C@H](Cn2c(N3CCC[C@H]3c3nccs3)nc3cc(-c4noc(=O)[nH]4)nc(-c4cncc(Cl)c4)c32)CC1` [Example 3.81, 3-{4-(5-chloropyridin-3-yl)-3-[(trans-4-methylcyclohexyl)methyl]-2-[(2S)-2-(1,3-thiazol-2-yl)pyrrolidin-1-yl]-3H-imidazo[4,5-c]pyridin-6-yl}-1,2,4-oxadiazol-5(4H)-one]: the IC50 (commonly the midpoint of a concentration-inhibition curve) is < 1 nM.
